Assay results reported in patent US10308639B2, “Phosphatidylinositol 3-kinase inhibitors” (Gilead Sciences, Inc., priority 2014, dated 2019).
Like-named read-outs stand apart in the source and are kept apart here.

Assays:
Assay type in all cases: biochemical
[1] = molecular target: T1, PI3Kγ (Homo sapiens, UniProt P48736); experiment: TR-FRET enzymatic activity assay, PI3Kγ; details: read-out: PI3Kγ IC50
T1 construct: made in house
How it was run: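 Read-out is TR-FRET. The assay scores enzymatic activity of the individual PI3K isoforms in the presence of compound.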

[2] = molecular target: T2, PI3Kβ (Homo sapiens, UniProt P42338); experiment: TR-FRET enzymatic activity assay, PI3Kβ
T2 construct: made in house

[3] = molecular target: T3, PI3Kδ (Homo sapiens, UniProt O00329); experiment: TR-FRET enzymatic activity assay, PI3Kδ
T3 construct: made in house

[4] = Table 2, TR-FRET, 2x Km ATP, 30 minutes at 25° C.

T2 sequence (P42338 whole entry): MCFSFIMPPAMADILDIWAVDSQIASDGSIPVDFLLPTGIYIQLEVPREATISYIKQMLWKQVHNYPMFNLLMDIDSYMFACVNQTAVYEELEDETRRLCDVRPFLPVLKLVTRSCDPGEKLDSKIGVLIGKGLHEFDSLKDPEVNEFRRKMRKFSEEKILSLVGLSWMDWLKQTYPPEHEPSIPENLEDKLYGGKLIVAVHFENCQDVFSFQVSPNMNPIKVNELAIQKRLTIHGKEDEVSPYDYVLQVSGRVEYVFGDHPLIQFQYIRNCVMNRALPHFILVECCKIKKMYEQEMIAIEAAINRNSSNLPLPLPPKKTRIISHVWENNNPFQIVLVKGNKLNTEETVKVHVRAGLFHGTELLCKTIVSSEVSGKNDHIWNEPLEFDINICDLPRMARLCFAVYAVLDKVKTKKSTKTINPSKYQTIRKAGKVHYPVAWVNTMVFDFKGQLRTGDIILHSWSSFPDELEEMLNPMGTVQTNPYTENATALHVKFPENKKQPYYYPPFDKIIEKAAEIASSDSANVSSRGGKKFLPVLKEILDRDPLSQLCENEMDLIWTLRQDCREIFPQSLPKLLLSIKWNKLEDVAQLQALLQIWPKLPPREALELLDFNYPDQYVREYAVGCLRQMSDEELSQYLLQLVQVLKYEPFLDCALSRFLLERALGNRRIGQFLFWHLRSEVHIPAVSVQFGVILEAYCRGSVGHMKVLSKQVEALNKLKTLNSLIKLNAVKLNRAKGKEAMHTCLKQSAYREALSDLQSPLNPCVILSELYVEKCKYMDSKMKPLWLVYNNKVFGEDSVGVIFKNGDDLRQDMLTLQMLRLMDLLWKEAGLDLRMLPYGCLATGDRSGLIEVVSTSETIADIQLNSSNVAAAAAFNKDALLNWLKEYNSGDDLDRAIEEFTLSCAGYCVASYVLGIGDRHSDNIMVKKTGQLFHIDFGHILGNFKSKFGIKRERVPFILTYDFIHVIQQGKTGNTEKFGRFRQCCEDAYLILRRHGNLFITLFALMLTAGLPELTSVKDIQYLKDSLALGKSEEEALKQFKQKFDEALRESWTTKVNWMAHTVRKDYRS
T2 sequence (P27986 whole entry partner): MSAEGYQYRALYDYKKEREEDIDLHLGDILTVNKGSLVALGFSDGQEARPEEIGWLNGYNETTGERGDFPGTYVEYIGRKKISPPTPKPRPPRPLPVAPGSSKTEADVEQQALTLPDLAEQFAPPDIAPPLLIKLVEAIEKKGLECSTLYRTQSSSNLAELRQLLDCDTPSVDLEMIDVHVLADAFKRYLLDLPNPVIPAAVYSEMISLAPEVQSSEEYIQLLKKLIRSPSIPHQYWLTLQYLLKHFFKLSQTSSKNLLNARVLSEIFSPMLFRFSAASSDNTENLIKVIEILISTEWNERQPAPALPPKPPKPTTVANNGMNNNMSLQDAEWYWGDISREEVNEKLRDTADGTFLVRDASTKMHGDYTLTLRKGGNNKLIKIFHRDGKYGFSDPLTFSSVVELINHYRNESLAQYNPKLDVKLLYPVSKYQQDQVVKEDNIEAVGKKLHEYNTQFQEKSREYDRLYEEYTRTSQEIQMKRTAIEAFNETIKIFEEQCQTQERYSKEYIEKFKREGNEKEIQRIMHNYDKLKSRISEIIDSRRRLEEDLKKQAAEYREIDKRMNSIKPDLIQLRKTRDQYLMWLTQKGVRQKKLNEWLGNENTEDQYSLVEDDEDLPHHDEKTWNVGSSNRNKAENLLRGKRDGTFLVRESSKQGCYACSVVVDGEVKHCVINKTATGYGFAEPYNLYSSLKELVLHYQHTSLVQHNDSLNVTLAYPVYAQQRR
T1 sequence (P48736 whole entry): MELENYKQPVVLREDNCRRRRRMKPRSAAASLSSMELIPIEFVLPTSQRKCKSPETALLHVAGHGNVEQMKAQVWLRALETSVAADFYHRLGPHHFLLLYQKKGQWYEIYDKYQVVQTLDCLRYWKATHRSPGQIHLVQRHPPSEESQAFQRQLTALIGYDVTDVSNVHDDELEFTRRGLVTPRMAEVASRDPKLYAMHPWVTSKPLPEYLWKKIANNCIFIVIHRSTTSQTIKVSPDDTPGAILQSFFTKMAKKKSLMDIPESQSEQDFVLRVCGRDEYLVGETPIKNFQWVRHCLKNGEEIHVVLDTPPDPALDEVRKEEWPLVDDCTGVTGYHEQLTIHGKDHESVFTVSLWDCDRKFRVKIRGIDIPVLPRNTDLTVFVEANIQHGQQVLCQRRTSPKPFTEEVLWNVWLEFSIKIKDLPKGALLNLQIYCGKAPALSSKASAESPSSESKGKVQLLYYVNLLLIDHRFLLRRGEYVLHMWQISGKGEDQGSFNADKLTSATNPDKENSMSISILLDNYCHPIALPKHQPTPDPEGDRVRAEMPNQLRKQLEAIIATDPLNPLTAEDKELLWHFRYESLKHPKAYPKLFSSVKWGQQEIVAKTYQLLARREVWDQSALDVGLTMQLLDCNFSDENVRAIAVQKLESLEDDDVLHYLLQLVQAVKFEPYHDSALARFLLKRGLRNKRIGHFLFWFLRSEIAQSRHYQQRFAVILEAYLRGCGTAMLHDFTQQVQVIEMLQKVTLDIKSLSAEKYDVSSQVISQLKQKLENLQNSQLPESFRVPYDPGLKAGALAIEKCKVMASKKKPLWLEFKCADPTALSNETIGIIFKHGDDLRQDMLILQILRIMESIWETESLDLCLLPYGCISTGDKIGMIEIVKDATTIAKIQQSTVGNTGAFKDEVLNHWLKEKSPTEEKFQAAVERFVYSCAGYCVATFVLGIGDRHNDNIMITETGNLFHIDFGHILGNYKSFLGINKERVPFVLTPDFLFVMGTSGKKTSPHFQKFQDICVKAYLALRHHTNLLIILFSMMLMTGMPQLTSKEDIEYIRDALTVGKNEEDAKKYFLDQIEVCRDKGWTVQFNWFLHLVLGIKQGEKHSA
T3 sequence (O00329 whole entry): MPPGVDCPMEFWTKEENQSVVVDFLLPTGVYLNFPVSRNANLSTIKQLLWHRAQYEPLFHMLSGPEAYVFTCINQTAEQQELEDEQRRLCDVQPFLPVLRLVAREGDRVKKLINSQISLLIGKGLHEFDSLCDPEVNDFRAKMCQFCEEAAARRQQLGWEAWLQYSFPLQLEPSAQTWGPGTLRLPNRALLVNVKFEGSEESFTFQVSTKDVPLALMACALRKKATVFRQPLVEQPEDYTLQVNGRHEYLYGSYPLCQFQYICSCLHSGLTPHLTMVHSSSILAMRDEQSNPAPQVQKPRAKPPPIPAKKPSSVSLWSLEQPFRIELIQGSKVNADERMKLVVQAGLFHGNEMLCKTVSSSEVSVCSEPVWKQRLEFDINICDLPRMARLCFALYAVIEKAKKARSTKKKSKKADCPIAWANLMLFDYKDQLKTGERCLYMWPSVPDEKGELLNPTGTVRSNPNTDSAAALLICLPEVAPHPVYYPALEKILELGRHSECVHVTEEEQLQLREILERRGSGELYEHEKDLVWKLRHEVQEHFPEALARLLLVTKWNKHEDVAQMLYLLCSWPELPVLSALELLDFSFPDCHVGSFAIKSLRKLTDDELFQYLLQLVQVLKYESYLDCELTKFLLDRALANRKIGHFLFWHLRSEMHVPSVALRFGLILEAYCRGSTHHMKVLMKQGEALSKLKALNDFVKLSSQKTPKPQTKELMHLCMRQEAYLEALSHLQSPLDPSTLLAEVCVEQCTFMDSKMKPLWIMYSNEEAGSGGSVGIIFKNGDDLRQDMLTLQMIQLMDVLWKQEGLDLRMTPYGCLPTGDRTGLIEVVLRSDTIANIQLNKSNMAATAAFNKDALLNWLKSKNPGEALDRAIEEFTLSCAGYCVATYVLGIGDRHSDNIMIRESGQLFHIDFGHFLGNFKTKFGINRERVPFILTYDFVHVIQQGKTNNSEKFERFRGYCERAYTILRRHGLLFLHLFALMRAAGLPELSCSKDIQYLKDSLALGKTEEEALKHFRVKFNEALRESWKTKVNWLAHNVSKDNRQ
T3 sequence (P27986 whole entry partner): as the sequence (P27986 whole entry partner) above

IC50 ([1]; Table 2a, same assay) [nM] | IC50 ([2]; Table 2a, same assay) [nM] | IC50 ([3]; Table 2a, same assay) [nM] | IC50 [1] [nM] | IC50 [2, 4] [nM] | IC50 [3, 4] [nM] | IC50 [1, 4] [nM] | SMILES
7300 | 18 | 8 | – | – | – | – | C[C@@H](Nc1nc(N)nc(N)c1C#N)c1nc2cccc(C(F)F)c2c(=O)n1-c1cc[nH]n1 [Compound 182, (R)-2,4-diamino-6-((1-(5-(difluoromethyl)-4-oxo-3-(1H-pyrazol-3-yl)-3,4-dihydroquinazolin-2-yl)ethyl)amino)pyrimidine-5-carbonitrile]
1400 | 2 | 2 | – | – | – | – | C[C@H](Nc1nc(N)nc(N)c1C#N)c1nc2cc(F)cc(Cl)c2c(=O)n1-c1cc[nH]n1 [Compound 237, (S)-2,4-diamino-6-((1-(5-chloro-7-fluoro-4-oxo-3-(1H-pyrazol-3-yl)-3,4-dihydroquinazolin-2-yl)ethyl)amino)pyrimidine-5-carbonitrile]
– | – | – | > 10000 | 110 | 23 | – | Nc1nc(N)c(Cl)c(N[C@H](c2nc3ccc(F)cc3c(=O)n2-c2cc[nH]n2)C2CC2)n1 [Compound 114, (S)-2-(cyclopropyl((2,6-diamino-5-chloropyrimidin-4-yl)amino)methyl)-6-fluoro-3-(1H-pyrazol-3-yl)quinazolin-4(3h)-one]
120 | 3 | 2 | – | – | – | – | C[C@H](Nc1nc(N)nc(N)c1C#N)c1nc2cccc(C(F)(F)F)c2c(=O)n1-c1cn[nH]c1 [Compound 206, (S)-2,4-diamino-6-((1-(4-oxo-3-(1H-pyrazol-4-yl)-5-(trifluoromethyl)-3,4-dihydroquinazolin-2-yl)ethyl)amino)pyrimidine-5-carbonitrile]
– | – | – | – | 0.8 | 1 | 93 | CC[C@H](Nc1nc(N)nc(N)c1C#N)c1nc2cccc(Br)c2c(=O)n1-c1cn[nH]c1 [Compound 99, (S)-2,4-diamino-6-((1-(5-bromo-4-oxo-3-(1H-pyrazol-4-yl)-3,4-dihydroquinazolin-2-yl)propyl)amino)pyrimidine-5-carbonitrile]
– | – | – | – | 10 | 6 | 3800 | C[C@H](Nc1nc(N)nc2[nH]nc(Br)c12)c1nc2cccc(Cl)c2c(=O)n1-c1cc[nH]n1 [Compound 92, (S)-2-(1-((6-amino-3-bromo-1H-pyrazolo[3,4-d]pyrimidin-4-yl)amino)ethyl)-5-chloro-3-(1H-pyrazol-3-yl)quinazolin-4(3H)-one]
3100 | 200 | 34 | – | – | – | – | Cc1c[nH]nc1-n1c([C@@H](Nc2nc(N)nc(Cl)c2C#N)C2CC2)nc2cccc(Cl)c2c1=O [Compound 243, (S)-2-amino-4-chloro-6-(((5-chloro-3-(4-methyl-1H-pyrazol-3-yl)-4-oxo-3,4-dihydroquinazolin-2-yl)(cyclopropyl)methyl)amino)pyrimidine-5-carbonitrile]
– | – | – | – | 5 | 1 | 130 | O=c1c2c(Cl)cccc2nc([C@@H](Nc2ncnc3scnc23)C2CC2)n1-c1cn[nH]c1 [Compound 25, (S)-5-chloro-2-(cyclopropyl(thiazolo[5,4-d]pyrimidin-7-ylamino)methyl)-3-(1H-pyrazol-4-yl)quinazolin-4(3H)-one]
280 | 20 | 36 | – | – | – | – | C[C@H](NC(=O)c1nc(Cl)c(N)nc1N)c1nc2cccc(Cl)c2c(=O)n1-c1cc[nH]n1 [Compound 276, (S)-3,5-diamino-6-chloro-N-(1-(5-chloro-4-oxo-3-(1H-pyrazol-3-yl)-3,4-dihydroquinazolin-2-yl)ethyl)pyrazine-2-carboxamide]

Continued, compound first:

SMILES | IC50 ([1]; Table 2a, same assay) [nM] | IC50 ([2]; Table 2a, same assay) [nM] | IC50 ([3]; Table 2a, same assay) [nM] | IC50 [1] [nM] | IC50 [2, 4] [nM] | IC50 [3, 4] [nM] | IC50 [1, 4] [nM]
C[C@H](Nc1nc(N)nc(N)c1Cl)c1nc2c(F)c(F)ccc2c(=O)n1-c1cc[nH]n1 [Compound 232, (S)-2-(1-((2,6-diamino-5-chloropyrimidin-4-yl)amino)ethyl)-7,8-difluoro-3-(1H-pyrazol-3-yl)quinazolin-4(3H)-one] | > 10000 | 260 | 190 | – | – | – | –
C[C@H](Nc1nc(N)nc(C(F)F)c1Cl)c1nc2c(Cl)cc(F)cc2c(=O)n1-c1cc[nH]n1 [Compound 226, (S)-2-(1-((2-amino-5-chloro-6-(difluoromethyl)pyrimidin-4-yl)amino)ethyl)-8-chloro-6-fluoro-3-(1H-pyrazol-3-yl)quinazolin-4(3H)-one] | > 10000 | 628 | 270 | – | – | – | –
C[C@H](Nc1nc(N)nc(N)c1Cl)c1nc2cccc(C(F)(F)F)c2c(=O)n1-c1cn[nH]c1 [Compound 209, (S)-2-(1-((2,6-diamino-5-chloropyrimidin-4-yl)amino)ethyl)-3-(1H-pyrazol-4-yl)-5-(trifluoromethyl)quinazolin-4(3H)-one] | 1800 | 83 | 16 | – | – | – | –
O=c1c2c(Cl)cccc2nc([C@H](CO)Nc2ncnc3scnc23)n1-c1cn[nH]c1 [Compound 50, (R)-5-chloro-2-(2-hydroxy-1-(thiazolo[5,4-d]pyrimidin-7-ylamino)ethyl)-3-(1H-pyrazol-4-yl)quinazolin-4(3H)-one] | – | – | – | – | 47 | 7 | 1800
O=c1c2c(Cl)cccc2nc([C@H](COCc2ccccc2)Nc2ncnc3scnc23)n1-c1cn[nH]c1 [Compound 47, (R)-2-(2-(benzyloxy)-1-(thiazolo[5,4-d]pyrimidin-7-ylamino)ethyl)-5-chloro-3-(1H-pyrazol-4-yl)quinazolin-4(3H)-one] | – | – | – | – | 11 | 11 | 2400
O=c1c2c(Cl)cccc2nc([C@H](CO)Nc2ncnc3scnc23)n1-c1cc[nH]n1 [Compound 51, (R)-5-chloro-2-(2-hydroxy-1-(thiazolo[5,4-d]pyrimidin-7-ylamino)ethyl)-3-(1H-pyrazol-3-yl)quinazolin-4(3H)-one] | – | – | – | > 10000 | 9 | 2 | –
C[C@H](Nc1nc(N)nc(N)c1C#N)c1nc2c(Cl)cc(F)cc2c(=O)n1-c1c[nH]cn1 [Compound 285, (S)-2,4-diamino-6-((1-(8-chloro-6-fluoro-3-(1H-imidazol-4-yl)-4-oxo-3,4-dihydroquinazolin-2-yl)ethyl)amino)pyrimidine-5-carbonitrile] | 330 | 4 | 1 | – | – | – | –
C[C@H](Nc1nc(N)nc(N)c1Cl)c1nc2c(C#N)cc(F)cc2c(=O)n1-c1cc[nH]n1 [Compound 271, (S)-2-(1-((2,6-diamino-5-chloropyrimidin-4-yl)amino)ethyl)-6-fluoro-4-oxo-3-(1H-pyrazol-3-yl)-3,4-dihydroquinazoline-8-carbonitrile] | > 10000 | 28 | 18 | – | – | – | –
CC[C@H](Nc1nc(N)nc(N)c1C#N)c1nc2c(C)ccc(F)c2c(=O)n1-c1cc[nH]n1 [Compound 36, (S)-2,4-diamino-6-((1-(5-fluoro-8-methyl-4-oxo-3-(1H-pyrazol-3-yl)-3,4-dihydroquinazolin-2-yl)propyl)amino)pyrimidine-5-carbonitrile] | – | – | – | – | 2 | 5 | 4100
CC[C@H](Nc1nc(N)nc(C)c1C#N)c1nc2c(C#N)cccc2c(=O)n1-c1cn[nH]c1 [Compound 93, (S)-2-(1-((2-amino-5-cyano-6-methylpyrimidin-4-yl)amino)propyl)-4-oxo-3-(1H-pyrazol-4-yl)-3,4-dihydroquinazoline-8-carbonitrile] | – | – | – | – | 16 | 9 | 3800
